Measurements from patent US20070043108A1, “Use of equol for ameliorating or preventing neuropsychiatric and neurodegenerative diseases or disorders” (priority 2002, published 2007).
“And” between values parts separate entries of the source, which are not always exact repeats. Equal entries are not always repeated.

How the values were obtained:
[1] = tested on: adult Long-Evans male rats; assay: Example 18: elevated plus maze, body weight and hypothalamic volumes in adult male rats treated with equol; assay type: in vivo, rat
Description: In this study, anxiety-related behaviors were examined along with hormone levels in adult Long-Evans male rats exposed to equol. A known and accepted animal behavioral test for psychiatric disorders in humans, such as elevated plus maze (EPM) was used for this purpose (P. Willner, in Behavioral Models in Psychopharmacology: Theoretical, Industrial and Clinical Perspectives, New York, Cambridge Univ. Press, 1991; M. A. Geyer & A. Markou, in Psychopharmacology: The Fourth Generation of Progress, NY, Raven Press, pp. 787-798, 1995; and R. Hitzemann, Alcohol & Res. Health, 24: 149-158, 2000).
The EPM test relies on the inherent conflict between exploration of a novel environment and avoidance of its aversive features. Typically, animals spend little time and make few entries into the open arms (new environment) compared to the closed arms of the maze (secure environment). For example, an anti-anxiety agent or drug would increase the number of entries into and total time spent in the open arms of the maze.
Male rats 50 days of age were given a diet low in phytoestrogens (10 ppm of isoflavones) and remained on this diet until 215 days of age. At 150 days of age the rats were age and body weight matched and then divided into control or equol treatment groups. Starting at 190 days, the male rats received daily subcutaneous (0.1 cc) injections of control vehicle (DMSO) or equol (2.5 mg/Kg) for 25 consecutive days.
After 15 days on the treatments the animals were tested in the EPM that was video-taped for 3 minutes and later recorded for the number of entries into—and the percentage of total time spent—on the open arms via AnyMaze® computer software.
At 215 days of age the animals were sacrificed and body/prostate weights, serum hormone and isoflavone levels were determined along with determining the volume of hypothalamic regions that are sensitive to hormones.
The brains were processed via standard staining and analyzed via Bioquant® for morphometric SDN and AVPV parameters by treatments.

[2] = humans; cited from earlier work
[3] = tested on: adult Long-Evans male rats; details: equol-treated male rats vs control, previously reported in US 2005/0245492; cited from earlier work
[4] = biological target: T1, ERα (Rattus norvegicus, UniProt P06211); assay: Competition binding of equol enantiomers with [3H]E2 for in vitro translated ERα
T1 construct: Full length rat ERα expression vector (pcDNA-ERα; RH Price UCSF); made in house; host or cells: TnT-coupled rabbit reticulocyte lysate in vitro translation (Promega)
T1 sequence (P06211 1-600): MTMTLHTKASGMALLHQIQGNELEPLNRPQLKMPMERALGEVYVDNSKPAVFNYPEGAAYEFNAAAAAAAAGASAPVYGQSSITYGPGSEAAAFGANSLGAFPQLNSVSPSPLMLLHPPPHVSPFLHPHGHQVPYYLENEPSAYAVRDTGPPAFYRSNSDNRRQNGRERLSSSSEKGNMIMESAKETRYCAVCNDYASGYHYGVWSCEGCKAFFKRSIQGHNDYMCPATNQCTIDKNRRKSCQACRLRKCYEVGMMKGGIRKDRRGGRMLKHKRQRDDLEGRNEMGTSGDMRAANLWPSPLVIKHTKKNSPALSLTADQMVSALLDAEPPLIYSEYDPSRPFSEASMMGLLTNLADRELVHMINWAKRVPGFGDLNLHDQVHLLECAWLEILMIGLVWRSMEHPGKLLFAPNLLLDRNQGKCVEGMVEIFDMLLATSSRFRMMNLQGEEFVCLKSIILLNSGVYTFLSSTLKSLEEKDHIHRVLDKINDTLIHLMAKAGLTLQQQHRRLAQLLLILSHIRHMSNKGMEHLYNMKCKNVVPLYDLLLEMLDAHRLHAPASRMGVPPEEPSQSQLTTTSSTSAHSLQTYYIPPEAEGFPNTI
Method: In vitro binding studies were performed to examine the relative affinities of S— and R-enantiomeric equol with the estrogen receptors ERα and ERβ.
Synthesis of Hormone Receptor Proteins: Full length rat ERα expression vector (pcDNA-ERα; RH Price UCSF) and ERβ expression vector (pcDNA-ERβ; T A Brown, Pfizer, Groton, […].) were used to synthesize hormone receptors in vitro using the TnT-coupled reticulocyte lysate system (Promega, Madison, Wis.) with T7-RNA polymerase, during a 90 min reaction at 30° C. Translation reaction mixtures were stored at −80° C. until further use.
Saturation isotherms: In order to calculate and establish the binding affinity of the S-equol and R-equol enantiomers for ERα and ERβ, 100 μL aliquots of reticulocyte lysate supernatant were incubated at optimal time and temperature; 90 min at room temperature (ERβ) and 18 hrs at 4° C. (ERα), with increasing (0.01-100 nm) concentrations of [3H] […] These times were determined empirically and represent optimal binding of receptor with estrogen. Nonspecific binding was assessed using a 300-fold excess of the ER agonist diethylstilbestrol, in parallel tubes. Following incubation, bound and unbound [3H]E2 were separated by passing the incubation reaction through a 1 mL lipophilic Sephadex LH-20 (Sigma-Aldrich Co., Saint Louis, Mo.) column Columns were constructed by packing a disposable pipette tip (1 mL; Labcraft, Curtin Matheson Scientific, Inc, Houston, Tex.) with TEGMD (10 mm Tris-Cl, 1.5 mm EDTA, 10% glycerol, 25 mm molybdate, and 1 mm dithiothreitol, pH 7.4)-saturated Sephadex according to previously published protocols (Wanda et al., 1986; O'Keefe and Handa, 1990). For chromatography, the columns were re-equilibrated with TEGMD (100 μL), and the incubation reactions were added individually to each column and allowed to incubate on the column for an additional 30 min. Following this incubation, 600 μL of TEGMD were added to each column, flow-through was collected, 4 mL scintillation fluid was added, and samples were counted (5 min each) in an 2900 TR Packard scintillation counter (Packard Bioscience, Meriden, Conn.).
Competition binding studies were used to assess the estrogenic properties of equol's S-equol and R-equol enantiomers. Based on the ability of S and R to compete with [3H]

[5] = 25 consecutive days, n = 4, not significant vs control
[6] = after 15 days of treatment, vs controls

Row | Structure (SMILES) | AVPV Volumes [1, 5] [mm^3 × 10^−3] | SDN Volumes [1, 5] [mm^3 × 10^−3] | number of entries into the open arms of the EPM [1, 6] | time spent on the open arms of the EPM [1, 6] | body weights ([1]; equol 2.5 mg/Kg sc daily for 25 days, vs control) | serum equol levels ([1]; equol-treated animals) | proportion circulating in the free or unbound form in plasma [2] | 5α-DHT [3] | prostate weight [3] | serum testosterone, luteinizing hormone (LH) or 17β-estradiol levels [3] | relative binding affinity for ERα compared with 17β-estradiol, fold less [4] | Kd ([4]; competition with [3H]E2, in vitro translated ER) [nM]
1 | Oc1ccc(C2COc3cc(O)ccc3C2)cc1 (racemic) [equol, 7-hydroxy-3(4′hydroxyphenyl)-chroman] | 10.59 ± 1.6 | 46.3 ± 3.1 | significantly greater | significantly greater | significantly decreased | equivalent to consuming a phytoestrogen-rich soy diet | Approximately 50% | significant reductions | significant reductions | no alteration | – | –
2 | Oc1ccc([C@@H]2COc3cc(O)ccc3C2)cc1 [R-equol] | – | – | – | – | – | – | – | – | – | – | 210.6 fold and 211 fold | 27.4 ± 3.8
